Test results published in patent US20240115654A1, “INTRAVENOUS ADMINISTRATION OF ENGINEERED ANTIMICROBIAL AMPHIPHILIC PEPTIDES” (priority 2021, published 2024).
Where two headings read alike, the source gives them in different places. Peptide text beside a SMILES is read from it.

Conditions: human, in vivo
[1] = single 1-hour infusion 0.05 mg/kg, Geometric Mean
[2] = single 1-hour infusion 0.05 mg/kg, Mean
[3] = single 1-hour infusion 0.05 mg/kg, Median
[4] = single 1-hour infusion 0.05 mg/kg, individual subjects
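Note: phase 1 study in human subjects given one IV dose of the peptide, enrolled in sequential ascending-dose cohorts and randomized to peptide or placebo.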

Protocol: Administration was a single 1-hour infusion.
Subjects were enrolled in sequential cohorts of peptide ascending dose levels and randomly assigned to receive a single IV administration of either peptide or placebo over 1 to 2 hours. […] In addition, the infusion volume was adjusted for Cohort 4 to maintain drug concentrations in line with Cohort 2
Blood samples for PK assessment were collected at pre-dose, at the midpoint of infusion, within 1 minute after the end-of-infusion and at 0.5, 1, 2, 4, 6, 8, 12, 20, 24, 36 and 48 hours after the end-of-infusion.
The pharmaceutical composition was stored at 2° C. to 8° C. for up to 14 days and then 15° C. to 25° C. for up to 48 hours for dosing.
Subjects were enrolled in sequential cohorts of peptide ascending dose levels and randomly assigned to receive a single IV administration of either peptide or placebo over 1 to 2 hours.

**Q.** Which results are given for CC(C)[C@H](NC(=O)[C@H](Cc1c[nH]c2ccccc12)NC(=O)[C@H](CCCNC(=N)N)NC(=O)[C@H](CCCNC(=N)N)NC(=O)[C@@H](NC(=O)[C@@H](NC(=O)[C@H](CCCNC(=N)N)NC(=O)[C@@H](NC(=O)[C@@H](NC(=O)[C@H](CCCNC(=N)N)NC(=O)[C@H](CCCNC(=N)N)NC(=O)[C@H](Cc1c[nH]c2ccccc12)NC(=O)[C@@H](NC(=O)[C@H](CCCNC(=N)N)NC(=O)[C@H](CCCNC(=N)N)NC(=O)[C@@H](NC(=O)[C@H](CCCNC(=N)N)NC(=O)[C@H](CCCNC(=N)N)NC(=O)[C@@H](NC(=O)[C@H](Cc1c[nH]c2ccccc12)NC(=O)[C@H](CCCNC(=N)N)NC(=O)[C@@H](N)CCCNC(=N)N)C(C)C)C(C)C)C(C)C)C(C)C)C(C)C)C(C)C)C(C)C)C(=O)N[C@@H](CCCNC(=N)N)C(=O)N[C@@H](CCCNC(=N)N)C(N)=O [SEQ ID NO: 1] (H-RRWVRRVRRVWRRVVRVVRRWVRR-NH2)?
**A.** clearance: 40.3 to 69.7 mL/min; AUC(0-inf) (0.05 mg/kg, AUC0-inf, 0.05 mg/kg 1-hr infusion): 1580 ng·h/mL; AUC(0-t) (0.05 mg/kg, AUC0-t, 0.05 mg/kg 1-hr infusion): 1280 ng·h/mL; AUC(0-inf) (0.05 mg/kg, AUC0-∞): 1580 ng·h/mL; Cmax (0.05 mg/kg, 0.05 mg/kg 1-hr infusion): 256 ng/mL; AUC(0-t) (0.05 mg/kg, mean AUC0-t): 1280 ng·h/mL; half-life (0.05 mg/kg, t1/2, 0.05 mg/kg 1-hr infusion): 444 min; AUC(0-inf) (0.5 mg/kg, AUC0-inf, 0.5 mg/kg 2-hr infusion): 9090 ng·h/mL; AUC(0-t) (0.5 mg/kg, AUC0-t, 0.5 mg/kg 2-hr infusion): 8330 ng·h/mL; Cmax (0.5 mg/kg, 0.5 mg/kg 2-hr infusion): 1830 ng/mL; half-life (0.5 mg/kg, t1/2, 0.5 mg/kg 2-hr infusion): 972 min; AUC(0-inf) (1 mg/kg, AUC0-∞): 21100 ng·h/mL; AUC(0-t) (1 mg/kg, mean AUC0-t): 21600 ng·h/mL; AUC(0-t) (AUC0-24, single 1-hour infusion 0.05 mg/kg, Geometric Mean): 1230 ng·h/mL; AUC(0-t) (AUC0-24, single 1-hour infusion 0.05 mg/kg, Mean): 1290 ng·h/mL; AUC(0-t) (AUC0-24, single 1-hour infusion 0.05 mg/kg, Median): 1350 ng·h/mL; AUC(0-inf) (AUC0-inf, single 1-hour infusion 0.05 mg/kg, Geometric Mean): 1600 ng·h/mL; AUC(0-inf) (AUC0-inf, single 1-hour infusion 0.05 mg/kg, Mean): 1610 ng·h/mL; AUC(0-inf) (AUC0-inf, single 1-hour infusion 0.05 mg/kg, Median): 1520 ng·h/mL; AUC(0-inf) (AUC0-inf, single 1-hour infusion 0.05 mg/kg, individual subjects): 1400 ng·h/mL; AUC(0-t) (AUC0-t, single 1-hour infusion 0.05 mg/kg, Geometric Mean): 1220 ng·h/mL; AUC(0-t) (AUC0-t, single 1-hour infusion 0.05 mg/kg, Mean): 1310 ng·h/mL; AUC(0-t) (AUC0-t, single 1-hour infusion 0.05 mg/kg, Median): 1350 ng·h/mL; CL/F [1]: 0.522 mL/min/kg; CL/F [2]: 0.525 mL/min/kg; CL/F [3]: 0.548 mL/min/kg; CL/F [4]: 0.595 mL/min/kg; Cmax [1]: 251 ng/mL; Cmax [2]: 256 ng/mL; Cmax [3]: 262 ng/mL; Tmax [1]: 1 h; Tmax [2]: 1 h; Tmax [3]: 1 h; Tmax [4]: 1 h; Tmax (single 1-hour infusion […], individual subjects): 1 h; half-life ([…], t1/2, […] 1-hr infusion): 630 min; half-life ([…], t1/2, […] 1-hr infusion (only 3 subjects)): 1190 min; half-life ([…], t1/2, […] 2-hr infusion): 792 min; AUC(0-t) (iv, 0.05 mg/kg, AUC0-t, 0.05 mg/kg IV 1-hr infusion): 1280 ng·h/mL; AUC(0-inf) (iv, 0.05 mg/kg, AUC0-∞, 0.05 mg/kg IV 1-hr infusion): 1580 ng·h/mL; AUC(0-t) (iv, 0.05 mg/kg, AUC(0-24), Actual mean, Phase 1 subjects, 0.05 mg/kg IV): 1290 ng·h/mL; Cmax (iv, 0.05 mg/kg, 0.05 mg/kg IV 1-hr infusion): 256 ng/mL; half-life (iv, 0.05 mg/kg, t1/2, 0.05 mg/kg IV 1-hr infusion): 442 min; AUC(0-t) (iv, 0.5 mg/kg, AUC0-t, 0.5 mg/kg IV 2-hr infusion): 8330 ng·h/mL; AUC(0-inf) (iv, 0.5 mg/kg, AUC0-∞, 0.5 mg/kg IV 2-hr infusion): 9090 ng·h/mL; Cmax (iv, 0.5 mg/kg, 0.5 mg/kg IV 2-hr infusion): 1830 ng/mL; half-life (iv, 0.5 mg/kg, t1/2, 0.5 mg/kg IV 2-hr infusion): 972 min; AUC(0-t) (iv, 1 mg/kg, AUC0-t, 1 mg/kg IV 4-hr infusion): 21600 ng·h/mL; AUC(0-inf) (iv, 1 mg/kg, AUC0-∞, 1 mg/kg IV 4-hr infusion): 21100 ng·h/mL; Cmax (iv, 1 mg/kg, 1 mg/kg IV 4-hr infusion): 2650 ng/mL; half-life (iv, 1 mg/kg, t1/2, 1 mg/kg IV 4-hr infusion): 1200 min; AUC(0-t) (iv, AUC0-24, Cohort 1, 0.05 mg/kg IV infusion, Geometric Mean): 1230 ng·h/mL; AUC(0-t) (iv, AUC0-24, Cohort 1, 0.05 mg/kg IV infusion, Mean): 1290 ng·h/mL; AUC(0-t) (iv, AUC0-24, Cohort 1, 0.05 mg/kg IV infusion, Median): 1350 ng·h/mL; AUC(0-t) (iv, AUC0-24, Cohort 1, 0.05 mg/kg IV infusion, cohort Geometric Mean): 1230 ng·h/mL; AUC(0-t) (iv, AUC0-24, Cohort 1, 0.05 mg/kg IV infusion, cohort Mean): 1290 ng·h/mL; AUC(0-t) (iv, AUC0-24, Cohort 1, 0.05 mg/kg IV infusion, cohort Median): 1350 ng·h/mL; AUC(0-t) (iv, AUC0-24, Cohort 4, 0.5 mg/kg IV infusion 2 hours, Geometric Mean): 6930 ng·h/mL; AUC(0-t) (iv, AUC0-24, Cohort 4, 0.5 mg/kg IV infusion 2 hours, Mean): 7390 ng·h/mL; AUC(0-t) (iv, AUC0-24, Cohort 4, 0.5 mg/kg IV infusion 2 hours, Median): 7270 ng·h/mL; AUC(0-t) (iv, AUC0-24, Cohort 4, 0.5 mg/kg IV, infusion 2 hours, cohort Geometric Mean): 6930 ng·h/mL; AUC(0-t) (iv, AUC0-24, Cohort 4, 0.5 mg/kg IV, infusion 2 hours, cohort Mean): 7390 ng·h/mL; AUC(0-t) (iv, AUC0-24, Cohort 4, 0.5 mg/kg IV, infusion 2 hours, cohort Median): 7270 ng·h/mL; AUC(0-t) (iv, AUC0-24, Cohort 5, 1 mg/kg IV infusion 4 hours, Geometric Mean): 17300 ng·h/mL; AUC(0-t) (iv, AUC0-24, Cohort 5, 1 mg/kg IV infusion 4 hours, Mean): 18000 ng·h/mL; AUC(0-t) (iv, AUC0-24, Cohort 5, 1 mg/kg IV infusion 4 hours, Median): 14800 ng·h/mL; AUC(0-inf) (iv, AUC0-inf, Cohort 1, 0.05 mg/kg IV infusion, Geometric Mean): 1600 ng·h/mL; AUC(0-inf) (iv, AUC0-inf, Cohort 1, 0.05 mg/kg IV infusion, Mean): 1610 ng·h/mL; AUC(0-inf) (iv, AUC0-inf, Cohort 1, 0.05 mg/kg IV infusion, Median): 1520 ng·h/mL; AUC(0-inf) (iv, AUC0-inf, Cohort 1, 0.05 mg/kg IV infusion, cohort Geometric Mean): 1600 ng·h/mL; AUC(0-inf) (iv, AUC0-inf, Cohort 1, 0.05 mg/kg IV infusion, cohort Mean): 1610 ng·h/mL; AUC(0-inf) (iv, AUC0-inf, Cohort 1, 0.05 mg/kg IV infusion, cohort Median): 1520 ng·h/mL; AUC(0-inf) (iv, AUC0-inf, Cohort 1, 0.05 mg/kg IV infusion, individual subject): 1400 ng·h/mL; AUC(0-inf) (iv, AUC0-inf, Cohort 1, 0.05 mg/kg IV infusion, individual subjects): 1400 ng·h/mL; AUC(0-inf) (iv, AUC0-inf, Cohort 4, 0.5 mg/kg IV infusion 2 hours, Geometric Mean): 8530 ng·h/mL; AUC(0-inf) (iv, AUC0-inf, Cohort 4, 0.5 mg/kg IV infusion 2 hours, Mean): 9200 ng·h/mL; AUC(0-inf) (iv, AUC0-inf, Cohort 4, 0.5 mg/kg IV infusion 2 hours, Median): 9540 ng·h/mL; AUC(0-inf) (iv, AUC0-inf, Cohort 4, 0.5 mg/kg IV, infusion 2 hours, cohort Geometric Mean): 8530 ng·h/mL; AUC(0-inf) (iv, AUC0-inf, Cohort 4, 0.5 mg/kg IV, infusion 2 hours, cohort Mean): 9200 ng·h/mL; AUC(0-inf) (iv, AUC0-inf, Cohort 4, 0.5 mg/kg IV, infusion 2 hours, cohort Median): 9540 ng·h/mL; AUC(0-inf) (iv, AUC0-inf, Cohort 5, 1 mg/kg IV infusion 4 hours, Geometric Mean): 21100 ng·h/mL; AUC(0-inf) (iv, AUC0-inf, Cohort 5, 1 mg/kg IV infusion 4 hours, Mean): 21300 ng·h/mL; AUC(0-inf) (iv, AUC0-inf, Cohort 5, 1 mg/kg IV infusion 4 hours, Median): 21000 ng·h/mL; AUC(0-inf) (iv, AUC0-inf, Cohort 5, 1 mg/kg IV infusion 4 hours, individual subject): 22100 ng·h/mL; AUC(0-t) (iv, AUC0-t, Cohort 1, 0.05 mg/kg IV infusion, Geometric Mean): 1220 ng·h/mL; AUC(0-t) (iv, AUC0-t, Cohort 1, 0.05 mg/kg IV infusion, Mean): 1310 ng·h/mL; AUC(0-t) (iv, AUC0-t, Cohort 1, 0.05 mg/kg IV infusion, Median): 1350 ng·h/mL; AUC(0-t) (iv, AUC0-t, Cohort 1, 0.05 mg/kg IV infusion, cohort Geometric Mean): 1220 ng·h/mL; AUC(0-t) (iv, AUC0-t, Cohort 1, 0.05 mg/kg IV infusion, cohort Mean): 1310 ng·h/mL; AUC(0-t) (iv, AUC0-t, Cohort 1, 0.05 mg/kg IV infusion, cohort Median): 1350 ng·h/mL; AUC(0-t) (iv, AUC0-t, Cohort 4, 0.5 mg/kg IV infusion 2 hours, Geometric Mean): 7830 ng·h/mL; AUC(0-t) (iv, AUC0-t, Cohort 4, 0.5 mg/kg IV infusion 2 hours, Mean): 8440 ng·h/mL; AUC(0-t) (iv, AUC0-t, Cohort 4, 0.5 mg/kg IV infusion 2 hours, Median): 8540 ng·h/mL; AUC(0-t) (iv, AUC0-t, Cohort 4, 0.5 mg/kg IV, infusion 2 hours, cohort Geometric Mean): 7830 ng·h/mL; AUC(0-t) (iv, AUC0-t, Cohort 4, 0.5 mg/kg IV, infusion 2 hours, cohort Mean): 8440 ng·h/mL; AUC(0-t) (iv, AUC0-t, Cohort 4, 0.5 mg/kg IV, infusion 2 hours, cohort Median): 8540 ng·h/mL; AUC(0-t) (iv, AUC0-t, Cohort 5, 1 mg/kg IV infusion 4 hours, Geometric Mean): 20400 ng·h/mL; AUC(0-t) (iv, AUC0-t, Cohort 5, 1 mg/kg IV infusion 4 hours, Mean): 21200 ng·h/mL; AUC(0-t) (iv, AUC0-t, Cohort 5, 1 mg/kg IV infusion 4 hours, Median): 17600 ng·h/mL; Cmax (iv, Cohort 1, 0.05 mg/kg IV infusion, Geometric Mean): 251 ng/mL; Cmax (iv, Cohort 1, 0.05 mg/kg IV infusion, Mean): 256 ng/mL; Cmax (iv, Cohort 1, 0.05 mg/kg IV infusion, Median): 262 ng/mL; Cmax (iv, Cohort 1, 0.05 mg/kg IV infusion, cohort Geometric Mean): 251 ng/mL; Cmax (iv, Cohort 1, 0.05 mg/kg IV infusion, cohort Mean): 256 ng/mL; Cmax (iv, Cohort 1, 0.05 mg/kg IV infusion, cohort Median): 262 ng/mL; Cmax (iv, Cohort 4, 0.5 mg/kg IV infusion 2 hours, Geometric Mean): 1770 ng/mL; Cmax (iv, Cohort 4, 0.5 mg/kg IV infusion 2 hours, Mean): 1830 ng/mL
